Experimental findings from US9266869B2, “Substituted dialkyl(oxido)-lambda4-sulfanylidene nicotinamide derivatives as kinase inhibitors” (Allergan, Inc., priority 2013, dated 2016) are described below.

What is called IC50 is the midpoint of a concentration-inhibition curve.

For one experiment, the target named is VEGFR2 (KDR) (Homo sapiens (Human), UniProt P35968). The experiment in a line: VEGFR2 Kinase Assay. The class given is biochemical. The note with it: purified cytoplasmic domain KDR protein, 2.7 μM ATP; read-out: VEGFR2 Enzyme Assay (IC50 nM). How it is done:
VEGFR2 Kinase Assay Biochemical KDR kinase assays were performed in 96 well microtiter plates that were coated overnight with 75 μg/well of poly-Glu-[…]:1) in 10 mM Phosphate Buffered Saline (PBS), pH 7.4. […] Reactions were carried out in 100 μL reaction volumes containing 2.7 μM ATP in kinase buffer (50 mM Hepes buffer pH 7.4, 20 mM MgCl2, 0.1 mM MnCl2 and 0.2 mM Na3VO4). […] Reactions were initiated by the addition 20 ul per well of kinase buffer containing 200-300 ng purified cytoplasmic domain KDR protein (BPS Bioscience, San Diego, Calif.). Following a 15 minute incubation at 30° C., the reactions were washed 2 mls per well PBS-T. 100 μl of a monoclonal anti-phosphotyrosine antibody-peroxidase conjugate diluted 1:10,000 in PBS-T was added to the wells for 30 minutes. Following a 2 mls per well wash with PBS-Tween-20, 100 μl of 0-Phenylenediamine Dihydrochloride in phosphate-citrate buffer, containing urea hydrogen peroxide, was added to the wells for 7-10 minutes as a colorimetric substrate for the peroxidase. […] IC50 values for compound inhibition were calculated directly from graphs of optical density (arbitrary units) versus compound concentration following subtraction of blank values.

Experiment [1] addresses T1, PDGFRβ (Homo sapiens (Human), UniProt P09619). Kind of experiment: PDGFRβ Kinase Assay. The note with it: purified cytoplasmic domain PDGFR-b protein, 36 μM ATP; read-out: PDGFRβ Enzyme Assay (IC50 nM). It is filed as biochemical. How it is done: Biochemical PDGFRβ kinase assays were performed in 96 well microtiter plates that were coated overnight with 75 μg of poly-Glu-Tyr (4:1) in 10 mM Phosphate Buffered Saline (PBS), pH 7.4.
PBS-T prior to starting the reaction. Reactions were carried out in 100 μL reaction volumes containing 36 μM ATP in kinase buffer (50 mM Hepes buffer pH 7.4, 20 mM MgCl2, 0.1 mM MnCl2 and 0.2 mM Na3VO4). […] Reactions were initiated by the addition 20 ul per well of kinase buffer containing 200-300 ng purified cytoplasmic domain PDGFR-b protein (Millipore). Following a 60 minute incubation at 30° C., the reactions were washed 2 mls per well PBS-T. 100 μl of a monoclonal anti-phosphotyrosine antibody-peroxidase conjugate diluted 1:10,000 in PBS-T was added to the wells for 30 minutes. Following a 2 mls per well wash with PBS-Tween-20, 100 μl of O-Phenylenediamine Dihydrochloride in phosphate-citrate buffer, containing urea hydrogen peroxide, was added to the wells for 7-10 minutes as a colorimetric substrate for the peroxidase. […] IC50 values for compound inhibition were calculated directly from graphs of optical density (arbitrary units) versus compound concentration following subtraction of blank values.
Target sequence in this assay (P09619 554-1106): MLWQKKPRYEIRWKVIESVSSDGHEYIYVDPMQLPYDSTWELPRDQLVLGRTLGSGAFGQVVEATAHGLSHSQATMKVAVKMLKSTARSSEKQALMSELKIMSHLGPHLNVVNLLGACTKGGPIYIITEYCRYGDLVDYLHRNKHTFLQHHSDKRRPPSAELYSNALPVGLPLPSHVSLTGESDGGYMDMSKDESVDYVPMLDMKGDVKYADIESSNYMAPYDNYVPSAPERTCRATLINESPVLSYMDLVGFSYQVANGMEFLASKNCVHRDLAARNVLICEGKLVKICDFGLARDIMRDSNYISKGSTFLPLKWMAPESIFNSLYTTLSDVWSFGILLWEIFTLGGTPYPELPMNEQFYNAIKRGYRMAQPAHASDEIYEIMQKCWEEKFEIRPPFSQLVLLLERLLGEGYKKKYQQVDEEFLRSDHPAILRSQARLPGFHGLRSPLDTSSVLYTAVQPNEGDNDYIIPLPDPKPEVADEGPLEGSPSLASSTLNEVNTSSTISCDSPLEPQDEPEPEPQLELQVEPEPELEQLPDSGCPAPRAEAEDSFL

The target in a further experiment is VEGFR2 (Homo sapiens (Human), UniProt P35968). The experiment in a line: VEGFR2 Cellular Assay (VEGF induced intracellular calcium, FLIPR, HUVEC). The class given is cell-based. To be noted: VEGF165 stimulation (10 ng/mL). On the procedure:
(§1) VEGFR2 Cellular Assay Automated FLIPR (Fluorometric Imaging Plate Reader) technology was used to screen for inhibitors of VEGF induced increases in intracellular calcium levels in fluorescent dye loaded endothelial cells. HUVEC (human umbilical vein endothelial cells) (Clonetics) were seeded in 384-well fibronectin coated black-walled plates overnight @ 37° C./5% CO2. Cells were loaded with calcium indicator Fluo-4 for 45 minutes at 37° C. Cells were washed 2 times (Elx405, Biotek Instruments) to remove extracellular dye. For screening, cells were pre-incubated with test agents for 30 minutes, at a single concentration (10 uM) or at concentrations ranging from 0.0001 to 10.0 uM followed by VEGF165 stimulation (10 ng/mL). Changes in fluorescence at 516 nm were measured simultaneously in all 384 wells using a cooled CCD camera. Data were generated by determining max-min fluorescence levels for unstimulated, stimulated, and drug treated samples. IC50 values for test compounds were calculated from % inhibition of VEGF stimulated responses in the absence of inhibitor.
(In general: Calcium assays in cells follow changes in intracellular calcium, usually with a dye or a luminescent sensor.)

For experiment [2], the target named is T1, PDGFRβ. Kind of experiment: PDGFRβ Cellular Assay (PDGF-induced intracellular calcium, FLIPR, NHDF-Ad). To be noted: PDGF-BB stimulation (30 ng/mL). It is filed as cell-based. How it is done:
as §1, with “Automated” for “VEGFR2 Cellular Assay Automated”, “of PDGF-induced” for “of VEGF induced”, “[…]. NHDF-Ad (Normal Human Dermal Fibroblasts, Adult; Lonza)” for “cells. HUVEC (human umbilical vein endothelial cells) (Clonetics)”, “by PDGF-BB” for “by VEGF165”, “stimulation (30” for “stimulation (10”, “of PDGF-BB” for “of VEGF”
Target sequence in this assay (P09619 33-1106): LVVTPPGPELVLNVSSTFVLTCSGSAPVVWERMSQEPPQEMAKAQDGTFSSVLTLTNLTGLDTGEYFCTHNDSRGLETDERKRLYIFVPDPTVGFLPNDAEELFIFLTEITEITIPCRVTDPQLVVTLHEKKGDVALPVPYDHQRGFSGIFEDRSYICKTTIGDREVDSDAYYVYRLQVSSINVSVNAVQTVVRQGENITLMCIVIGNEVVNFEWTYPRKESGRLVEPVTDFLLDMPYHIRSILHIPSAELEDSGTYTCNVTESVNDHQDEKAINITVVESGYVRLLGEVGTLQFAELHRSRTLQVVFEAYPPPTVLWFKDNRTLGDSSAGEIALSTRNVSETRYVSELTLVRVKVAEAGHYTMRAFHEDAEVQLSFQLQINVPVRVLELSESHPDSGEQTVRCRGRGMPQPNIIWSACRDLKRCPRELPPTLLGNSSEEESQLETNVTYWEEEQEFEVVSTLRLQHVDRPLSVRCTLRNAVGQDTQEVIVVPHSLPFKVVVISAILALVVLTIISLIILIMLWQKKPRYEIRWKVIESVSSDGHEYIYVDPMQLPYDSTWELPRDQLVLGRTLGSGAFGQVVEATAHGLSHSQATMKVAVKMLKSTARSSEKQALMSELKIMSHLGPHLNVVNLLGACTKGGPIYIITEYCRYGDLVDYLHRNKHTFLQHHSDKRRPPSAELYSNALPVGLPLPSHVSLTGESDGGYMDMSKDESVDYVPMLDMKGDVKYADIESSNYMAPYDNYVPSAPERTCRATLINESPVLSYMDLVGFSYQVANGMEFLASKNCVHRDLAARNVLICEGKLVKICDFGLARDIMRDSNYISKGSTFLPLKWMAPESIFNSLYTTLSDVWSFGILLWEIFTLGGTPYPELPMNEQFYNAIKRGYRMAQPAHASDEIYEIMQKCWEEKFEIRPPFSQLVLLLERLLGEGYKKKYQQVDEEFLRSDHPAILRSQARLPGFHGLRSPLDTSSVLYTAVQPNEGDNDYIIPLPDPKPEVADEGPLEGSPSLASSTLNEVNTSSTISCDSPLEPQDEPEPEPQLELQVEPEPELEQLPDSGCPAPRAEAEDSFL

Chain of VEGFR2 (P35968 20-1356): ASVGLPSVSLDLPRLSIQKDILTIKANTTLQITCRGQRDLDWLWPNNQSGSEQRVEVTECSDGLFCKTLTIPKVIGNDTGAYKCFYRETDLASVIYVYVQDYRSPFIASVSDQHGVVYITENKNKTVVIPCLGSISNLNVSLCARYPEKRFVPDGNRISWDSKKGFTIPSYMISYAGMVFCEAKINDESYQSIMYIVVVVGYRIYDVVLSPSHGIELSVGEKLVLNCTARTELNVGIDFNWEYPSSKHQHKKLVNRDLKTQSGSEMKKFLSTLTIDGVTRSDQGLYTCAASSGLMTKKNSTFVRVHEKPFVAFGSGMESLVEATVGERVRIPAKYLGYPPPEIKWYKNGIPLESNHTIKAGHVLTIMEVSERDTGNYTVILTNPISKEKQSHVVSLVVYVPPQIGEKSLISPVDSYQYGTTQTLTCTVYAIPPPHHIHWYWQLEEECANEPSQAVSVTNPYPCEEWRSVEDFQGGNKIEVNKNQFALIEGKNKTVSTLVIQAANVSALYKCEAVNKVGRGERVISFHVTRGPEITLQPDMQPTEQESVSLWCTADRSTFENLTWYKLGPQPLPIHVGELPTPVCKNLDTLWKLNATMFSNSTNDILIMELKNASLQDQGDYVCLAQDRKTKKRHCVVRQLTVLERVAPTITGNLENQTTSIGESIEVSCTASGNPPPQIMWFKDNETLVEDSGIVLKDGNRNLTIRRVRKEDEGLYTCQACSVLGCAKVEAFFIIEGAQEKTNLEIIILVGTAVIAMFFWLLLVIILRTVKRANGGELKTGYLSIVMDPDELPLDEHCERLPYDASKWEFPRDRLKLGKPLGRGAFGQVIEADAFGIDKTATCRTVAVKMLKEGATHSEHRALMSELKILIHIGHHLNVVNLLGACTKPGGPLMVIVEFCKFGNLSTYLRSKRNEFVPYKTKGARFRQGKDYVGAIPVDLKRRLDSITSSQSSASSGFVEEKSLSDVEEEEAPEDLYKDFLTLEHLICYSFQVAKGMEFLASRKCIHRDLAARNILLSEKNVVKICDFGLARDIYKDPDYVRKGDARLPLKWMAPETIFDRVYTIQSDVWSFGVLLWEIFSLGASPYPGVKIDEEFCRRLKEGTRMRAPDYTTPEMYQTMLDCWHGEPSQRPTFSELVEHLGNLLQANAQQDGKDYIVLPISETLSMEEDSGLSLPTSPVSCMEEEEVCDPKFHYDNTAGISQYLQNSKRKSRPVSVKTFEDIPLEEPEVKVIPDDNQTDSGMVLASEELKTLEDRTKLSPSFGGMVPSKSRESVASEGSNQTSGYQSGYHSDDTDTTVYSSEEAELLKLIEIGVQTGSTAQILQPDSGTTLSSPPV
Chain of VEGFR2 (KDR) (P35968 786-1356): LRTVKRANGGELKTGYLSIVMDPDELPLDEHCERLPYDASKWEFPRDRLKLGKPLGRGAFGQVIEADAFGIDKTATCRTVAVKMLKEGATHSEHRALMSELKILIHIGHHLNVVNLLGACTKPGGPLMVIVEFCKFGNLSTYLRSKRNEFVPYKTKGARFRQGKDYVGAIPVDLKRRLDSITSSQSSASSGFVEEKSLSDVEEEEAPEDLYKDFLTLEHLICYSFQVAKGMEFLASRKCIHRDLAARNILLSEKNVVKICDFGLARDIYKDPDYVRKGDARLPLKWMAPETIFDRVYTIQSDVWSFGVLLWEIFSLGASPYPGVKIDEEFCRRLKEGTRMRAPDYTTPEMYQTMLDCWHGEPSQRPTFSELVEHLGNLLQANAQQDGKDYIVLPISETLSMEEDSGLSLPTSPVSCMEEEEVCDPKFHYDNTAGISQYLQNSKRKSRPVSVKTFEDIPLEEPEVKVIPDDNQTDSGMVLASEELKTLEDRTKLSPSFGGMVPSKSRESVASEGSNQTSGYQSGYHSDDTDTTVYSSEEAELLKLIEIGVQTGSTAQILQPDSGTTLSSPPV

Turning to “6-Amino-N-[(3-hydroxypropyl)(methyl)oxido-λ^4-sulfanylidene]-5-({3-[(3-methyl-2-furoyl)amino]phenyl}ethynyl)nicotinamide [Example 42]”, the results for the IC50 at VEGFR2 (KDR) and on PDGFRβ [1] were 5 nM and 13 nM, respectively. On to `CS(C)(=O)=NC(=O)c1cnc(N)c(C#Cc2cccc(NC(=O)c3ccc(Cl)cc3)c2)c1` [Example 5, 6-Amino-5-({3-[(4-chlorobenzoyl)amino]phenyl}ethynyl)-N-[dimethyl(oxido)-λ^4-sulfanylidene]nicotinamide], for which the IC50 came to 2 nM on VEGFR2 (KDR), 9 nM at VEGFR2 and 22 nM on PDGFRβ [1]. In the case of `Cn1ccnc1C(=O)Nc1cccc(C#Cc2cc(C(=O)N=S(C)(C)=O)cnc2N)c1` [Example 7, 6-Amino-N-[dimethyl(oxido)-λ^4-sulfanylidene]-5-[(3-{[(1-methyl-1H-imidazol-2-yl)carbonyl]amino}phenyl)ethynyl]nicotinamide], the IC50 at VEGFR2 (KDR) was determined as 6 nM; at VEGFR2 it was 51 nM. For `CS(C)(=O)=NC(=O)c1cncc(C#Cc2cccc(NC(=O)Nc3ccccc3F)c2)c1` [Example 9, N-[Dimethyl(oxido)-λ^4-sulfanylidene]-5-{[3-({[(2-fluorophenyl)amino]carbonyl}amino)phenyl]ethynyl}nicotinamide], the IC50 at VEGFR2 (KDR) was 8 nM; at VEGFR2, 48 nM. Consider `Cc1cccc(NC(=O)Nc2cccc(C#Cc3cncc(C(=O)N=S(C)(C)=O)c3)c2)c1` [Example 10, N-[Dimethyl(oxido)-λ^4-sulfanylidene]-5-{[3-({[(3-methylphenyl)amino]carbonyl}amino)phenyl]ethynyl}nicotinamide], for which the values for the IC50 at VEGFR2 (KDR), on VEGFR2 and at PDGFRβ [1] were 8 nM, 11 nM and 19 nM, respectively. For `Cc1ccc(NC(=O)Nc2cccc(C#Cc3cncc(C(=O)N=S(C)(C)=O)c3)c2)cc1` [Example 11, N-[Dimethyl(oxido)-λ^4-sulfanylidene]-5-{[3-({[(4-methylphenyl)amino]carbonyl}amino)phenyl]ethynyl}nicotinamide], the figures for the IC50 at VEGFR2 (KDR), at VEGFR2 and on PDGFRβ [1] were 6 nM, 15 nM and 19 nM, respectively. Consider `Cc1ccoc1C(=O)Nc1cccc(C#Cc2cncc(C(=O)N=S(=O)(CCCO)CCCO)c2)c1` [Example 14, N-[Bis(3-hydroxypropyl)(oxido)-λ^4-sulfanylidene]-5-({3-[(3-methyl-2-furoyl)amino]phenyl}ethynyl)nicotinamide], for which the IC50 at VEGFR2 (KDR) was determined as 5 nM; at PDGFRβ [1], 26 nM. The like results for `Cc1ccoc1C(=O)Nc1cccc(C#Cc2cc(C(=O)N=S(=O)(CCCO)CCCO)cnc2N)c1` [Example 15, 6-amino-N-[bis(3-hydroxypropyl)(oxido)-λ^4-sulfanylidene]-5-({3-[(3-methyl-2-furoyl)amino]phenyl}ethynyl)nicotinamide] were, in that order, 3 nM and 16 nM. With `O=C(N=S(=O)(CCCO)CCCO)c1cncc(C#Cc2cccc(NC(=O)c3ccc(Cl)c(C(F)(F)F)c3)c2)c1` [Example 16, N-[Bis(3-hydroxypropyl)(oxido)-λ^4-sulfanylidene]-5-[(3-{[4-chloro-3-(trifluoromethyl)benzoyl]amino}phenyl)ethynyl]nicotinamide], the IC50 at VEGFR2 (KDR) stood at 3 nM. Take `Cc1cccc(C(=O)Nc2cccc(C#Cc3cncc(C(=O)N=S(=O)(CCCO)CCCO)c3)c2)c1` [Example 17, N-[Bis(3-hydroxypropyl)(oxido)-λ^4-sulfanylidene]-5-({3-[(3-methylbenzoyl)amino]phenyl}ethynyl)nicotinamide]: the IC50 came out at 3 nM at VEGFR2 (KDR) and 6 nM on PDGFRβ [1].

With `O=C(N=S(=O)(CCCO)CCCO)c1cncc(C#Cc2cccc(NC(=O)c3cccc(C(F)(F)F)c3)c2)c1` [Example 18, N-[Bis(3-hydroxypropyl)(oxido)-λ^4-sulfanylidene]-5-[(3-{[3-(trifluoromethyl)benzoyl]amino}phenyl)ethynyl]nicotinamide], the IC50 on VEGFR2 (KDR) worked out at 4 nM.

In the case of `O=C(N=S(=O)(CCCO)CCCO)c1cncc(C#Cc2cccc(NC(=O)c3ccc(F)c(Cl)c3)c2)c1` [Example 19, N-[Bis(3-hydroxypropyl)(oxido)-λ^4-sulfanylidene]-5-({3-[(3-chloro-4-fluorobenzoyl)amino]phenyl}ethynyl)nicotinamide], the IC50 at VEGFR2 (KDR) is 5 nM. Turning to `Cc1ccc(F)c(C(=O)Nc2cccc(C#Cc3cncc(C(=O)N=S(=O)(CCCO)CCCO)c3)c2)c1` [Example 20, N-[Bis(3-hydroxypropyl)(oxido)-λ^4-sulfanylidene]-5-({3-[(2-fluoro-5-methylbenzoyl)amino]phenyl}ethynyl)nicotinamide], at VEGFR2 (KDR), the IC50 worked out at 9 nM. The same measure, in the same setting: as for `COc1cccc(C(=O)Nc2cccc(C#Cc3cc(C(=O)N=S(=O)(CCCO)CCCO)cnc3N)c2)c1` [Example 21, 6-Amino-N-[bis(3-hydroxypropyl)(oxido)-λ^4-sulfanylidene]-5-({3-[(3-methoxybenzoyl)amino]phenyl}ethynyl)nicotinamide], the figure is 5 nM. For `Cc1cccc(NC(=O)c2cccc(C#Cc3cc(C(=O)N=S(=O)(CCCO)CCCO)cnc3N)c2)c1` [Example 22, 6-Amino-N-[bis(3-hydroxypropyl)(oxido)-λ^4-sulfanylidene]-5-[(3-{[(3-methylphenyl)amino]carbonyl}phenyl)ethynyl]nicotinamide], the IC50 was 3 nM on VEGFR2 (KDR) and 8 nM at PDGFRβ [1].

Consider `Cc1ccoc1C(=O)Nc1cccc(C#Cc2cc(C(=O)N=S(C)(=O)CCCCC(=O)O)cnc2N)c1` (stereo not shown) [Example 24, 5-(N-{[6-amino-5-({3-[(3-methyl-2-furoyl)amino]phenyl}ethynyl)pyridin-3-yl]carbonyl}-S-methylsulfonimidoyl)pentanoic acid], for which the IC50 amounted to 5 nM on VEGFR2 (KDR) and 46 nM on VEGFR2.

Consider `COC(=O)CCCCS(C)(=O)=NC(=O)c1cnc(N)c(C#Cc2cccc(NC(=O)c3cc(C)ccc3F)c2)c1` (stereo not shown) [Example 25, Methyl 5-(N-{[6-amino-5-({3-[(2-fluoro-5-methylbenzoyl)amino]phenyl}ethynyl)pyridin-3-yl]carbonyl}-S-methylsulfonimidoyl)pentanoate], for which the IC50 on VEGFR2 (KDR) stood at 8 nM; on PDGFRβ [1], 45 nM; on PDGFRβ [2] it was 27 nM. With `COC(=O)CCCCS(C)(=O)=NC(=O)c1cnc(N)c(C#Cc2cccc(C(=O)Nc3cc(C)ccc3F)c2)c1` (stereo not shown) [Example 35, Methyl 5-[N-({6-amino-5-[(3-{[(2-fluoro-5-methylphenyl)amino]carbonyl}phenyl)ethynyl]pyridin-3-yl}carbonyl)-S-methylsulfonimidoyl]pentanoate], the IC50 on VEGFR2 (KDR) is 17 nM; on PDGFRβ [2], 43 nM.

Regarding “(R)—N-[(3-Hydroxypropyl)(methyl)oxido-λ^4-sulfanylidene]-5-({3-[(3-methyl-2-furoyl)amino]phenyl}ethynyl)nicotinamide [Example 40]”, the results for the half-maximal inhibitory concentration (IC50) on VEGFR2 (KDR) and on VEGFR2 were 3 nM and 2 nM, respectively.
